Several values for one entry are separate records, joined by “and”; a condition that tells them apart may be missing. Equal values may be shown once. Activity calls are given as the source filed them.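 The calls were made as follows: active = compounds giving half or more protection of infected cells from virus-caused growth loss, again on retest; inactive = the rest.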 Where a SMILES comes first, the peptide text is derived from it. The star is where a group is joined. Boc = CC(C)(C)OC(=O)*; OBn = c1ccc(CO*)cc1
Tested on: CEM cells HIV-1 protection, formazan growth assay
Assay: NCI AIDS Antiviral Assay
Conditions: for IC50: measured here: growth of uninfected CEM cells
In short: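 Human CEM cells, uninfected and HIV-1-infected, exposed to five drug concentrations; growth measured by soluble formazan assay and scored as percent protection from infection, with protecting compounds retested.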

| SMILES | EC50 [µM] | IC50 | outcome |
| --- | --- | --- | --- |
| CCOC(=O)C(=O)Nc1cccc(Cl)c1C | > 741 | > 741 µM | – |
| CCOC(=O)C(O)(NC(=O)Nc1ccc(F)cc1)C(F)(F)F (stereo not given) | > 200 | > 200 µM | – |
| COc1ccccc1NC(=O)/C(=C/c1ccccc1)C(C)=O | > 24.5 | 18.6 µM | – |
| COc1ccc(CCN2C(=O)c3cccc4c(Br)ccc(c34)C2=O)cc1 | > 200 | 105 µM | – |
| O=c1oc2cccnc2n1CCN1CCN(c2ccc(Oc3ccccc3)cc2)CC1 | > 200 | 52.5 µM | – |
| Cc1ccc(/C=C2\CCCCCC2=O)cc1 | > 200 | 182 µM | – |
| O=C1C2C3C=C4c5ccccc5N(c5ccccc5)C4(C2C(=O)N1c1ccc(Br)cc1)[C@H]1C(=O)N(c2ccc(Br)cc2)C(=O)[C@@H]31 (stereo not given in full) | > 5.25 | > 5.25 µM | – |
| CCOC(=O)NC(C(F)(F)F)(C(F)(F)F)P(=O)(OCC(C)C)OCC(C)C | > 200 | 5.37 µM | – |
| COc1ccc(-c2c(C#N)c(N)n(C3OC(COC(C)=O)C(OC(C)=O)C(OC(C)=O)C3OC(C)=O)c(=S)c2C#N)cc1 (stereo not given) | > 200 | 83.2 µM and 115 µM | – |
| CC(=O)Nc1ccc(C(=O)NN2C(=O)C(Cl)/C2=C/c2ccco2)cc1 (stereo not given) | – | – | inactive |
| Cc1cc2nc3ccc(=[N+](C)C)cc-3sc2cc1N | > 117 | 0.676 µM | – |
| CNC(=O)OCc1cnc([N+](=O)[O-])n1C | > 200 | > 200 µM | – |
| Cc1ccc(NC(=O)C(=O)C2C(=O)NC(=O)NC2=O)c(C)c1 | > 832 | > 832 µM | – |
| OCC1C(CO)C2CCC1C2(c1ccccc1)c1ccccc1 (stereo not given) | > 95.5 | 60.3 µM | – |
| C=CCc1ccc(O)c(-c2cc(C3Oc4c(-c5cc(CC=C)ccc5O)cc(O)cc4[C@@H]3CO)ccc2O)c1 (stereo not given in full) | > 100 | 91.2 µM | – |
| CC1(C)OC(=C(C#N)C#N)C(C#N)=C1/C=C/c1ccncc1 | > 151 | 0.813 µM | – |
| Cc1[nH]n(-c2ccccc2)c(=O)c1/C=N\C(N)=S | > 200 | 182 µM | – |
| CN1C2CCC1C(C(=O)O)C(O)C2 (stereo not given) | > 200 | > 200 µM | – |
| CC(C)(C)NC(=O)CCC1C(C(=O)NC(C)(C)C)C2(Cl)C(Cl)=C(Cl)C1(Cl)C2(Cl)Cl (stereo not given) | > 200 | > 200 µM | – |
| CCCCCCCCCC(=O)CC(=O)c1c(O)cccc1O | > 23.4 | > 23.4 µM | – |
| CCCn1c2ccccc2c2ccc3c(c21)C(=O)C=CC3=O | > 200 | 1.17 µM | – |
| CC(C)(C)C1CNP(=O)(c2ccccc2)OC1 (stereo not given) | > 70.8 | > 70.8 µM | – |
| CCN(CC)c1ccc2c(-c3ccccc3C(=O)O)c3ccc(=[N+](CC)CC)cc-3oc2c1 | > 100 | 9.12 µM and 13.5 µM | – |

| SMILES | EC50 [µM] | IC50 | outcome |
| --- | --- | --- | --- |
| O=[N+]([O-])/C(C(Cl)=C(Cl)Cl)=C1/OCCS1 | > 200 | 107 µM | – |
| Cn1c(=O)c2nsnc2n(C)c1=O | > 661 | > 661 µM | – |
| COc1cccc(N2C(=O)CSC2c2c[nH]c3ccccc23)c1 (stereo not given) | > 22.4 | > 22.4 µM | – |
| OCc1ccc2c(c1)CC1(C2)Cc2cc3c(cc2C1O)CCC3 (stereo not given) | > 200 | 1.82 µM | – |
| Cc1ccccc1NC(=O)C(=O)C(C(=O)c1ccccc1F)C1OC(=O)c2ccccc21 (stereo not given) | > 302 | 51.3 µM | – |
| Cn1nc(-c2ccccc2)c2c(-c3ccccc3)c3cc(Cl)ccc3nc21 | > 100 | > 100 µM | – |
| CC1(C)CCCC2OC2CCC(C)(C)C1=O (stereo not given) | > 200 | > 200 µM | – |
| CN1CCCC(O)C1CNC12CC3CC(CC(C3)C1)C2 (stereo not given) | > 794 | 245 µM | – |
| O=C(c1ccccc1)C(C(=O)c1ccccc1)C1(O)C(=O)c2ccccc2C1=O | – | – | inactive |
| CCOc1ccccc1N=NC1C(=O)N(C(=O)CC(=O)Nc2ccccc2C)N=C1C (stereo not given) | > 200 | > 200 µM | – |
| C(=C\c1ccnc2ccccc12)/c1ccc2c(c1)OCO2 | – | 66.1 µM | inactive |
| O=[N+]([O-])c1cccc(-c2csc(NNC3=NC/C(=C/c4ccc5c(c4)OCO5)S3)n2)c1 | > 200 | 117 µM | – |
| O=[N+]([O-])/N=c1/nc2scc(-c3ccc([N+](=O)[O-])cc3)n2s1 | > 200 | 29.5 µM | – |
| O=C(O)C1(C(=O)O)CC1(C(=O)O)C(=O)O | – | – | inactive |
| NC(=O)N/N=C(\Cc1nc2ccc(Cl)cc2[nH]c1=O)C(=O)Nc1ccc(Cl)cc1Cl | > 77.6 | > 77.6 µM | – |
| Clc1ccc(C=NC23CC4CC(CC(C4)C2)C3)cc1Cl | > 200 | 95.5 µM | – |
| CN=C(NC#N)NCCSCc1nc[nH]c1C | > 389 | > 389 µM | – |
| Cc1ccn2c(c1)nc1nc3ccccc3nc12 | > 214 | 110 µM | – |
| O=C1C(=O)c2c(nc3ccccn23)-c2ccccc21 | > 2 | 0.427 µM | – |
| CNc1ncnc2nc(OC)[nH]c12 | > 105 | > 105 µM | – |
| O=C1OC2OC3OC(=O)C4C3CC2C14 (stereo not given) | > 257 | > 257 µM | – |
| CC(C)CC(NC(=O)C(Cc1ccccc1)NC(=O)C(Cc1ccccc1)NC(=O)OC(C)(C)C)C(=O)OCc1ccccc1 (stereo not drawn) (Boc-Phe-Phe-Leu-OBn; configuration not given here) | > 200 | > 200 µM | – |
| CCOc1ncn(-c2ccc(NC(=S)NC34CC5CC(CC(C5)C3)C4)cc2)n1 | 12 | 67.6 µM | – |

| SMILES | EC50 [µM] | IC50 | outcome |
| --- | --- | --- | --- |
| O=C(O)c1nc2cc(C(F)(F)F)ccc2nc1Nc1ccc(F)cc1 | > 200 | 7.76 µM | – |
| C[N+]12CCCc3cc(CO)cc(c31)CCC2 | 112 | 603 µM | – |
| CC(=O)N(C(C)=O)n1c(Cc2ccc(Cl)cc2)nn(C(C)=O)c1=O | > 200 | > 200 µM | – |
| CCOC(=O)C(=[N+]=[N-])C(=O)CN1C(=O)C2CC(C)=C(C)CC2C1O (stereo not given) | > 389 | > 389 µM | – |
| CC12CC/C(=N/NC(N)=O)C3C1CCCC32 | – | – | inactive |
| Cc1cccc(-c2nnc3s/c(=C\c4ccc(N(C)C)cc4)c(=O)n23)c1 | > 30.9 | > 30.9 µM | – |
| O=Cc1c2ccccc2n2ccc3c4ccccc4[nH]c3c12 | > 200 | > 200 µM | – |
| CSc1cc(-c2ccccn2)nc(-c2ccccn2)c1 | > 2 | 0.269 µM | – |
| Cc1nnc2n1N=C(c1ccc(O)c(O)c1O)CS2 | > 200 | 20.4 µM | – |
| CCCCCCCCCCCCCCCC=C(c1cc(Br)c(O)c(C(=O)O)c1)c1cc(Br)c(O)c(C(=O)O)c1 | > 112 | 53.7 µM | – |
| CCOC(=O)c1cnc(SCc2ccc(Cl)c(Cl)c2)nc1N1CC1C (stereo not given) | > 200 | 6.46 µM | – |
| c1ccc(Nc2nnc(-c3ccccc3Nc3ccccc3-c3nnc(Nc4ccccc4)s3)s2)cc1 | > 200 | 105 µM | – |
| O=C(Nn1cnn2c(=O)c3ccccc3nc2c1=O)c1ccccc1 | > 200 | > 200 µM | – |
| C[N+]1(C)C/C(=C\c2ccncc2)C(=O)/C(=C/c2ccncc2)C1 | – | – | inactive |
| COc1ccc(C2SC(=S)N(Cc3ccc(Cl)cc3)N2Cc2ccc(Cl)cc2)cc1 (stereo not given) | > 200 | 34.7 µM | – |
| COc1cc(C2SC(N)=Nc3c2c(C)nn3C(=O)Cc2ccccc2)cc(OC)c1OC (stereo not given) | 49 | > 200 µM | – |
| O=C(O)c1ccccc1/C=N/NC1=NCCCCN1 | > 200 | 141 µM | – |
| Cn1c(=O)n(-c2c3ccccc3c(Cl)c3ccccc23)n(C(C)(C)C)c1=O | > 100 | > 100 µM | – |
| CCOC(=O)C(NC(=O)c1cccc(Cl)c1)(N1CCN(c2cc3c(cc2F)c(=O)c(C(=O)O)cn3C2CC2)CC1)C(F)(F)F (stereo not given) | > 20 | 10.2 µM | – |
| CC1(C)C=Cc2c(ccc3c(=O)c(-c4ccccc4)coc23)O1 | > 100 | > 100 µM | – |
| Nc1cccc2cc(Cl)cnc12 | > 200 | > 200 µM | – |
| C/C(CC1(O)C(=O)Nc2ccccc21)=N\O (stereo not given) | > 200 | > 200 µM | – |
| CC(=O)N(C)CCc1c[nH]c2ccccc12 | > 200 | > 200 µM | – |

| SMILES | EC50 [µM] | IC50 | outcome |
| --- | --- | --- | --- |
| CCN(CC)CCOC(=O)CCN1CC2CCC(CC2)C1 | > 200 | > 200 µM | – |
| Cn1cnc([N+](=O)[O-])c1S | > 200 | 67.6 µM | – |
| COc1ccc(N2C(=O)c3c4c(c5c([nH]c6ncccc65)c3C2=O)CCC(C(C)(C)C)C4)cc1 (stereo not given) | 191 | > 200 µM | – |
| O=C1CCc2cc3c(cc21)CC1(Cc2ccccc2C1)C3 | > 200 | 4.57 µM | – |
| COC1CCC(O)C(CO)O1 (stereo not given) | – | – | inactive |
| CC(=O)OC1C(CNC(=O)N(C)N=O)OC(OC2(CNC(=O)N(C)N=O)OC(CNC(=O)N(C)N=O)C(OC(C)=O)C2OC(C)=O)C(OC(C)=O)C1OC(C)=O (stereo not given) | > 27.5 | > 27.5 µM | – |
| COC(=O)C1CC(=O)N(C)c2sc(C)c(C)c2C1=O (stereo not given) | > 282 | 112 µM | – |
| CS1(C)=NC(=O)c2cc([N+](=O)[O-])ccc2N=1 | > 123 | > 123 µM | – |
| Cc1nc2c(cc1C(=O)NN)c(=O)n(C)c(=O)n2C | > 200 | > 200 µM | – |
| Cc1cc(O)c2c(c1)C(=O)C(c1c(C)cc3c(c1O)C(=O)C1OC1C3=O)=CC2=O (stereo not given) | > 174 | 0.0933 µM | – |
| COC(=O)CC(c1ccc(OC)cc1)C(CC(=O)OC)c1ccc(OC)cc1 (stereo not given) | > 67.6 | 60.3 µM | – |
| O=C1CN2C(Cl)(Cl)C2(c2ccccc2)c2cc(Cl)ccc2N1CC1CC1 (stereo not given) | > 200 | 11.7 µM | – |
| COc1ccc2c(c1)CCC1=C2CCC(=O)C1C (stereo not given) (tested in a mixture with another compound) | > 200 | 7.94 µM | – |
| CCOC(=O)C(F)(F)C(=O)OCC | > 200 | > 200 µM | – |
| c1ccc(N=c2sc3ccccc3nc2Nc2ccccc2)cc1 | > 200 | 123 µM | – |
| O=C(OCc1ccccc1)N(CCCCN(CCCNC(=O)C(F)(F)F)C(=O)OCc1ccccc1)CCCNC(=O)C(F)(F)F | – | – | inactive |
| N#CC(C#N)=C1C(C#N)=C(N)NC12OCCO2 | > 200 | > 200 µM | – |
| Cc1ccc(C(CCO)CCO)nc1 | > 200 | > 200 µM | – |
| O=[N+]1ON=C(c2ccccc2)C1=C1C(c2c(-c3ccccc3)no[n+]2[O-])=NON1[O-] | > 200 | 6.03 µM | – |
| C#CC1NC(=O)C1N(CC)CC (stereo not given) | – | – | inactive |

From PubChem BioAssay AID179 (DTP/NCI, 2004)
